In ChEMBL document CHEMBL5291721, “A preclinical secondary pharmacology resource illuminates target-adverse drug reaction associations of marketed drugs” (Nat Commun, 2023):

How the values were obtained:
[1] = biological target: T1, Neuropeptide Y receptor type 2 (Homo sapiens, UniProt P49146)
T1 sequence (P49146 whole entry): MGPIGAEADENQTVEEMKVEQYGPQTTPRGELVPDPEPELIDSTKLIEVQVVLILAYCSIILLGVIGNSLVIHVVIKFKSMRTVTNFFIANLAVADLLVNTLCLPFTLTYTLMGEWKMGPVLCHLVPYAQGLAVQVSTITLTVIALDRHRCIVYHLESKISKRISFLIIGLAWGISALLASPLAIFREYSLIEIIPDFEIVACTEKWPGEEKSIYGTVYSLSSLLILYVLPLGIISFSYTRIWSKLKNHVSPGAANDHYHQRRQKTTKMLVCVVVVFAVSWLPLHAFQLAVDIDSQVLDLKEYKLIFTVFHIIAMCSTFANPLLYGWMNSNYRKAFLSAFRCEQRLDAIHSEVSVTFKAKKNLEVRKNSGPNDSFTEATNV

[2] = biological target: T2, Gastric inhibitory polypeptide receptor (Homo sapiens, UniProt P48546)
T2 sequence (P48546 whole entry): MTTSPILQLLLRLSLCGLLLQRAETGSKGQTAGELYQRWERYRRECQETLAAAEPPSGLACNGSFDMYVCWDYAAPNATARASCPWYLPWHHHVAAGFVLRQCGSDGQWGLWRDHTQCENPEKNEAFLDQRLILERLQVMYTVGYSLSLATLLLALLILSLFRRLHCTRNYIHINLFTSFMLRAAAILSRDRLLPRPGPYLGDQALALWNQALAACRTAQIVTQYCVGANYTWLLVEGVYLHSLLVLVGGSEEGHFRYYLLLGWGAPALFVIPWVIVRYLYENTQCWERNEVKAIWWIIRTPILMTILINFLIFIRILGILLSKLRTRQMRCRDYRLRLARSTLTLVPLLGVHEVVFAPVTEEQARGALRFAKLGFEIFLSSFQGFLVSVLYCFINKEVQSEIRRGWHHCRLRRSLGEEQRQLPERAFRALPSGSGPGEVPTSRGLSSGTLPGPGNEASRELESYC

Progesterone receptor = biological target: T3, Progesterone receptor (Homo sapiens, UniProt P06401)
T3 sequence (P06401 whole entry): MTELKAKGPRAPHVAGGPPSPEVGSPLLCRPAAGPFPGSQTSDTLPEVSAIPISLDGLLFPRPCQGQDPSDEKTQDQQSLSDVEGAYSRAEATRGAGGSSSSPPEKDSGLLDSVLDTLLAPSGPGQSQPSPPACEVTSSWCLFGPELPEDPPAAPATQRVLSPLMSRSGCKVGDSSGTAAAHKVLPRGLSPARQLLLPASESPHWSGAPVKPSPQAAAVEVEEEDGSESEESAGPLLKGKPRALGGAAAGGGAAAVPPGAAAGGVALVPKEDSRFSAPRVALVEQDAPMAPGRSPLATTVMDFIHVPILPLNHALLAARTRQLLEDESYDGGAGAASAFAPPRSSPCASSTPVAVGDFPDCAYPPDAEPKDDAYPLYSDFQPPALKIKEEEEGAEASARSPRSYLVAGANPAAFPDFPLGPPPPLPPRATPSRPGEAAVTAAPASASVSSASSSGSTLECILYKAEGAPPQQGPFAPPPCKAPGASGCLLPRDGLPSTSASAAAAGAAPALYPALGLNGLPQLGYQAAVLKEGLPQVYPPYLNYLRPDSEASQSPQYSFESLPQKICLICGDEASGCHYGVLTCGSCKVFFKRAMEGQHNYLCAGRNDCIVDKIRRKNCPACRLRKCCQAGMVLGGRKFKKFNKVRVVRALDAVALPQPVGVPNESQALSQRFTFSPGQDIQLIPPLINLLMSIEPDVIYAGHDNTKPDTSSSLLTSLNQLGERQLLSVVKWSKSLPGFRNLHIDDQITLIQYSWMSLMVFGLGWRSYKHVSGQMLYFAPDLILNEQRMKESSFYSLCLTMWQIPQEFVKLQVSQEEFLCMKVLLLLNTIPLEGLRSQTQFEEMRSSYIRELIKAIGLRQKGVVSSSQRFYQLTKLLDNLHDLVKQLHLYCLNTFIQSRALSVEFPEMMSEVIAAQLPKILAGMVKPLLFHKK

Melanocortin receptor 4 = Melanocortin receptor 4 (Homo sapiens, UniProt P32245)
Histamine H2 receptor = Histamine H2 receptor (Homo sapiens, UniProt P25021)
B1 bradykinin receptor = biological target: T4, B1 bradykinin receptor (Homo sapiens, UniProt P46663)
T4 sequence (P46663 whole entry): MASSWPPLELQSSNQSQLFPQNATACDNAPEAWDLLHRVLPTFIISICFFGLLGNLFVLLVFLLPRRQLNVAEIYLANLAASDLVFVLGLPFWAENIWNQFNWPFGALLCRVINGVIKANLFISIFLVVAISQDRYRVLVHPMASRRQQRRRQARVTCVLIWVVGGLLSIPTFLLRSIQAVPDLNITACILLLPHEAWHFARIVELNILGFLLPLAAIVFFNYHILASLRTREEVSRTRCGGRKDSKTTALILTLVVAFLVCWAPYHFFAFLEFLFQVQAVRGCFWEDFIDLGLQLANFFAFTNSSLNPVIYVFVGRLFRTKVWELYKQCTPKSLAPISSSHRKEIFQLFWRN

Cannabinoid receptor 1 = Cannabinoid receptor 1 (Homo sapiens, UniProt P21554)
[3] = biological target: T5, 5-hydroxytryptamine receptor 1A (Homo sapiens, UniProt P08908)
T5 sequence (P08908 whole entry): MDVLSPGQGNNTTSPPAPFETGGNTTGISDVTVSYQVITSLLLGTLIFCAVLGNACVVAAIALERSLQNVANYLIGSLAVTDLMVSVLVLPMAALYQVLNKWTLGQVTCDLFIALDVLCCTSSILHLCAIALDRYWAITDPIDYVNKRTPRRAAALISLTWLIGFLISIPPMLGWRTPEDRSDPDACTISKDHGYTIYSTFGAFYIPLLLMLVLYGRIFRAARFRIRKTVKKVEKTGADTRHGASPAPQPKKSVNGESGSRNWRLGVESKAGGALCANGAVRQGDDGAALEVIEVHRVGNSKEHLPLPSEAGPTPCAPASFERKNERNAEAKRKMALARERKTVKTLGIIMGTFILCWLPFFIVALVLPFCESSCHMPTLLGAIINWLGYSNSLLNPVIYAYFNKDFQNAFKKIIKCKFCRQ

[4] = biological target: 5-hydroxytryptamine receptor 2A (Homo sapiens, UniProt P28223); assay type: functional, cell-based
[5] = biological target: Gamma-aminobutyric acid receptor subunit alpha-1/alpha-2/beta-2/gamma-2 (Homo sapiens, UniProt P14867+P18507+P47869+P47870); assay type: protein-complex assay
Further: assay procedure not described here.

Chain of Melanocortin receptor 4 (P32245 whole entry): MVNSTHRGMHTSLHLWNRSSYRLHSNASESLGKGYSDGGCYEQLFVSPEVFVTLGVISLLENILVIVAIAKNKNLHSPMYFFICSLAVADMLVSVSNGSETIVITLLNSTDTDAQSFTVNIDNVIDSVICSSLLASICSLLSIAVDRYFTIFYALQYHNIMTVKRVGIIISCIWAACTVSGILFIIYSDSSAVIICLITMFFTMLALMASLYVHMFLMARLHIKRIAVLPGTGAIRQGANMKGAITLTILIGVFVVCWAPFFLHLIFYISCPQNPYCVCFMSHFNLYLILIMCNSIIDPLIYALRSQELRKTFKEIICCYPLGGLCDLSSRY
Chain of Gamma-aminobutyric acid receptor subunit alpha-1/alpha-2/beta-2/gamma-2 (P14867 whole entry): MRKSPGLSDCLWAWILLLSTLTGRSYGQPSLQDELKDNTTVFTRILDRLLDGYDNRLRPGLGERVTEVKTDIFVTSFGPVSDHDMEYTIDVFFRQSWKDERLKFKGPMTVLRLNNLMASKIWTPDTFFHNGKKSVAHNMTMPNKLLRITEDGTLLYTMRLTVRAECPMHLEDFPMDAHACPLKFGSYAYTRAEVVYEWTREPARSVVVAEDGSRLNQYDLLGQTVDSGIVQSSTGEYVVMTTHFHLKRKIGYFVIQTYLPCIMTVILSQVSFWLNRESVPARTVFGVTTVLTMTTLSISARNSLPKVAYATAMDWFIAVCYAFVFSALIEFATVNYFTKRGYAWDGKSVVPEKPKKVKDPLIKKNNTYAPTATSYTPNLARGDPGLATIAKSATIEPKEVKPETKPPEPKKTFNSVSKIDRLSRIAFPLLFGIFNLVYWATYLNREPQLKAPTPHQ
Chain of Gamma-aminobutyric acid receptor subunit alpha-1/alpha-2/beta-2/gamma-2 (P47870 whole entry): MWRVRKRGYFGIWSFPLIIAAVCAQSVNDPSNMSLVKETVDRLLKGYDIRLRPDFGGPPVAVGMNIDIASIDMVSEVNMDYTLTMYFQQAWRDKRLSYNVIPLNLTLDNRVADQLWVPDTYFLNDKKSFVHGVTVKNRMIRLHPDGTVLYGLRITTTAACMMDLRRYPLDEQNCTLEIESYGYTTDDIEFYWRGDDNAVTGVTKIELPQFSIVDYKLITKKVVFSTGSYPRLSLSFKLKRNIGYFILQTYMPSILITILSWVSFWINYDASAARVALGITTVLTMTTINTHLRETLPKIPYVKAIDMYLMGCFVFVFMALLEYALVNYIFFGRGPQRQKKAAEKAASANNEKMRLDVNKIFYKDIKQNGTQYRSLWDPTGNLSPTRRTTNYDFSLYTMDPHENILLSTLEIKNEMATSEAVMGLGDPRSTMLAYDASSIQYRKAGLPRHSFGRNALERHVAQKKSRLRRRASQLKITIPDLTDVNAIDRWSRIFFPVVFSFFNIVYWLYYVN
Chain of Gamma-aminobutyric acid receptor subunit alpha-1/alpha-2/beta-2/gamma-2 (P18507 whole entry): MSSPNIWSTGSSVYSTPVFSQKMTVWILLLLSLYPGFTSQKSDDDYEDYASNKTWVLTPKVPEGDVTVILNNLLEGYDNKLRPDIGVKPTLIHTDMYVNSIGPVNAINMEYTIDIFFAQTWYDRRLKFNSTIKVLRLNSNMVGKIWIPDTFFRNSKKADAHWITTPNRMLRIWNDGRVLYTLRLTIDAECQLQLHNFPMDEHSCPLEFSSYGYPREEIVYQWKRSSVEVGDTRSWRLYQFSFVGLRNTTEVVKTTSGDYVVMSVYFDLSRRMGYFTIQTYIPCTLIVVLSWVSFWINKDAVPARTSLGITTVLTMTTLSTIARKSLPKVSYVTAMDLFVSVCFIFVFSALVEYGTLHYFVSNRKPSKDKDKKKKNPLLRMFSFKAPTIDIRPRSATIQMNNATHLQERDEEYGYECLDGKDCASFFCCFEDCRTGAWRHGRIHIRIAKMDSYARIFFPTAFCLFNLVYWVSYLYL
Chain of Gamma-aminobutyric acid receptor subunit alpha-1/alpha-2/beta-2/gamma-2 (P47869 whole entry): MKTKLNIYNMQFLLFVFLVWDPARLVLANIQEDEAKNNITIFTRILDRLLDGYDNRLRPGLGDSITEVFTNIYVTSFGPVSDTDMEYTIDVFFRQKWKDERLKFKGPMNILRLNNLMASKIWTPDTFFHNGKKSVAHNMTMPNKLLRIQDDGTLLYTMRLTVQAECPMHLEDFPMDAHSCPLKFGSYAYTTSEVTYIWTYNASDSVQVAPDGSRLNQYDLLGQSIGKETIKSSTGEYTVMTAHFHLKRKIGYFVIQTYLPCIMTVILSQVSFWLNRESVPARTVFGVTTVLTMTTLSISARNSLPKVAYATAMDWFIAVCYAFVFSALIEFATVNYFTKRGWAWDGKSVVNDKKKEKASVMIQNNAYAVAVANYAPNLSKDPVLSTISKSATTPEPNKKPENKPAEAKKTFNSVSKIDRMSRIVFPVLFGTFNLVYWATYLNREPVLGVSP
Chain of Cannabinoid receptor 1 (P21554 whole entry): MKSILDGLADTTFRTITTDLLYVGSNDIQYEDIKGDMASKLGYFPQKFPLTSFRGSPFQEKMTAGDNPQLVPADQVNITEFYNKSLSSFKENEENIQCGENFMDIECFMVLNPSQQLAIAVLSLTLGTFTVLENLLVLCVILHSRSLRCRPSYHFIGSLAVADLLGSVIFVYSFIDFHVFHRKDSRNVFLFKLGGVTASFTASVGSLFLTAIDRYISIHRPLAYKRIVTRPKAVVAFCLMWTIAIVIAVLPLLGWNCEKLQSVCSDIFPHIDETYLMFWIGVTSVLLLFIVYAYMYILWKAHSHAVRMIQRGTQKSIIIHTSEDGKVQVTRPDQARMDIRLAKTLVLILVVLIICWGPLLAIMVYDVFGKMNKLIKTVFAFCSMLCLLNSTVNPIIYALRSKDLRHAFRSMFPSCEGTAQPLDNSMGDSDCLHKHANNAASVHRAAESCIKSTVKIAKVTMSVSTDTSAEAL
Chain of 5-hydroxytryptamine receptor 2A (P28223 whole entry): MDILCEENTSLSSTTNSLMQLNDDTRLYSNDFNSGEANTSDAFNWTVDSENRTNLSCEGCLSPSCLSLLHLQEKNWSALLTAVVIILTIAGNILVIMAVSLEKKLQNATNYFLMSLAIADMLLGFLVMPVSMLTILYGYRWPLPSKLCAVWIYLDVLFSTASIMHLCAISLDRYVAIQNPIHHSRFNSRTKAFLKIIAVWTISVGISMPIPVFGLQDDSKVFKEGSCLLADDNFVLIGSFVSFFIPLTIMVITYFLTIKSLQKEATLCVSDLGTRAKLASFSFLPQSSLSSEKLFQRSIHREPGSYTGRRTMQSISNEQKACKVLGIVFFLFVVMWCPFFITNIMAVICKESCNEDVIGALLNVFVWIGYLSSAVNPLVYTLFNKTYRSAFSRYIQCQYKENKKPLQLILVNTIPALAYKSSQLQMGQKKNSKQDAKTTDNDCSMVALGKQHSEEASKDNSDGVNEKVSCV
Chain of Histamine H2 receptor (P25021 whole entry): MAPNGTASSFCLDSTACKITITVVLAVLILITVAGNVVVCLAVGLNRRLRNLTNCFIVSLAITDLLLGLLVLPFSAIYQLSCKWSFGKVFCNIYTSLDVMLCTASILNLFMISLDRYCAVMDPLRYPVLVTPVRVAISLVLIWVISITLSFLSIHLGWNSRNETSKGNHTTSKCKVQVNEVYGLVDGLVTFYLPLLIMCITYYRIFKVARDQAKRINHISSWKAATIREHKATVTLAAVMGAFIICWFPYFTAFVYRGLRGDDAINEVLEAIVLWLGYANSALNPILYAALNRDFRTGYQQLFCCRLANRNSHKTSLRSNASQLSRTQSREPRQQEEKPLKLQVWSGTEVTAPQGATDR

SMILES | AC50 [4] | AC50 [5] | further results
CCOc1nc2cccc(C(=O)O)c2n1Cc1ccc(-c2ccccc2-c2nnn[nH]2)cc1 |  |  | AC50 [1]: > 30 µM; AC50 [2]: > 30 µM; AC50 (Progesterone receptor): > 30 µM; AC50 (Melanocortin receptor 4): > 10 µM; AC50 (Histamine H2 receptor): > 10 µM; AC50 (B1 bradykinin receptor): > 30 µM; AC50 (Cannabinoid receptor 1): > 10 µM; AC50 [3]: > 10 µM
CCOc1cc([C@@H](CS(C)(=O)=O)N2C(=O)c3cccc(NC(C)=O)c3C2=O)ccc1OC | > 30 µM |  | 
CC(=O)NCCCCCC(=O)O [ACEXAMIC ACID] |  | > 30 µM | 
CC(=O)Nc1ccc(CC(=O)O)cc1 [ACTARIT] | > 30 µM |  | 
C=C(C)CNc1ccc(C(C)C(=O)O)cc1 (stereo not given) [ALMINOPROFEN] |  | > 30 µM | 
C[C@H]1CN(C[C@H](Cc2ccccc2)C(=O)NCC(=O)O)CC[C@@]1(C)c1cccc(O)c1 [ALVIMOPAN] |  | > 30 µM | 
O=C(O)c1ccccc1 [BENZOIC ACID] |  | > 30 µM | 
CC1(C)S[C@@H]2[C@H](NC(=O)C(C(=O)O)c3ccccc3)C(=O)N2[C@H]1C(=O)O (stereo not given in full) [CARBENICILLIN] | > 30 µM |  | 
Cc1nnc(SCC2=C(C(=O)O)N3C(=O)[C@@H](NC(=O)Cn4cnnn4)[C@H]3SC2)s1 [CEFAZOLIN] | > 30 µM |  | 
CC=CC1=C(C(=O)O)N2C(=O)[C@@H](NC(=O)[C@H](N)c3ccc(O)cc3)[C@H]2SC1 [CEFPROZIL] | > 30 µM |  | AC50 (Melanocortin receptor 4): > 30 µM; AC50 (Cannabinoid receptor 1): > 30 µM
CC(C)(O/N=C(\C(=O)N[C@@H]1C(=O)N2C(C(=O)[O-])=C(C[n+]3ccccc3)CS[C@H]12)c1csc(N)n1)C(=O)O [CEFTAZIDIME] | > 30 µM |  | 
CC(C)NC(=N)NC(=N)Nc1ccc(Cl)c(Cl)c1 [CHLORPROGUANIL] | 3.6 µM |  | 
CCCNC(=O)NS(=O)(=O)c1ccc(Cl)cc1 [CHLORPROPAMIDE] |  |  | AC50 [1]: > 30 µM; AC50 [2]: > 30 µM; AC50 (Progesterone receptor): > 30 µM; AC50 (Melanocortin receptor 4): > 30 µM; AC50 (B1 bradykinin receptor): > 30 µM; AC50 (Cannabinoid receptor 1): > 10 µM; AC50 [3]: > 10 µM
Cc1cc(C2CCCCC2)n(O)c(=O)c1 [CICLOPIROX] |  | > 30 µM | 
C[N+](C)(C)CCOP(=O)(O)OP(=O)([O-])OC[C@H]1O[C@@H](n2ccc(N)nc2=O)[C@H](O)[C@@H]1O [CITICOLINE] | > 30 µM |  | 
Clc1ccc(Cn2c(CN3CCCC3)nc3ccccc32)cc1 [CLEMIZOLE] | 15 µM |  | 
Cc1nc(Nc2ncc(C(=O)Nc3c(C)cccc3Cl)s2)cc(N2CCN(CCO)CC2)n1 [DASATINIB] |  |  | AC50 [1]: > 10 µM; AC50 (Progesterone receptor): > 30 µM; AC50 (Melanocortin receptor 4): > 30 µM; AC50 (Histamine H2 receptor): > 10 µM; AC50 (B1 bradykinin receptor): > 10 µM; AC50 (Cannabinoid receptor 1): > 10 µM; AC50 [3]: 21.9 µM
C[C@H]1O[C@@H](O[C@H]2CC[C@@]3(C)[C@H](CC[C@@H]4[C@@H]3C[C@@H](O)[C@]3(C)[C@@H](C5=CC(=O)OC5)CC[C@]43O)C2)C[C@H](O)[C@@H]1O[C@H]1C[C@H](O)[C@H](O[C@H]2C[C@H](O)[C@H](O[C@@H]3O[C@H](CO)[C@@H](O)[C@H](O)[C@H]3O)[C@@H](C)O2)[C@@H](C)O1 [DESLANOSIDE] |  | > 30 µM | 
CC(C(=O)O)c1cccc(Oc2ccccc2)c1 (stereo not given) [FENOPROFEN] |  | > 30 µM | 
Cc1onc(-c2c(F)cccc2Cl)c1C(=O)N[C@@H]1C(=O)N2[C@@H]1SC(C)(C)[C@@H]2C(=O)O [FLOXACILLIN] | > 30 µM |  | 

SMILES | AC50 [4] | AC50 [5] | further results
CC1(C)O[C@@H]2C[C@H]3[C@@H]4C[C@H](F)C5=CC(=O)C=C[C@]5(C)[C@@]4(F)[C@@H](O)C[C@]3(C)[C@]2(C(=O)CO)O1 [FLUOCINOLONE ACETONIDE] |  | > 30 µM | 
N=C(N)N/N=C/c1c(Cl)cccc1Cl [GUANABENZ] |  | > 30 µM | 
CCCCCCCN(CC)CCCC(O)c1ccc(NS(C)(=O)=O)cc1 (stereo not given) [IBUTILIDE] | 25 µM |  | AC50 (Cannabinoid receptor 1): > 30 µM
COc1cc(C(C)=O)ccc1OCCCN1CCC(c2noc3cc(F)ccc23)CC1 [ILOPERIDONE] |  |  | AC50 [3]: 0.0785 µM
CC(C)[C@@H]1CC[C@@H](C)C[C@H]1O [LEVOMENTHOL] |  | > 30 µM | 
C[N+]1(C)CCCC(OC(=O)C(O)(c2ccccc2)c2ccccc2)C1 (stereo not given) [MEPENZOLATE] |  | > 30 µM | 
CN(C)c1ccc(O)c2c1C[C@H]1C[C@H]3[C@H](N(C)C)C(O)=C(C(N)=O)C(=O)[C@@]3(O)C(O)=C1C2=O [MINOCYCLINE] |  | > 30 µM | 
CCNC(=O)/C=C(C)/C=C/C=C(C)/C=C/c1c(C)cc(OC)c(C)c1C [MOTRETINIDE] |  | > 30 µM | 
CNC(=C[N+](=O)[O-])NCCSCc1csc(CN(C)C)n1 [NIZATIDINE] |  |  | AC50 (Melanocortin receptor 4): > 10 µM; AC50 (Cannabinoid receptor 1): > 10 µM
CN1Cc2c(N)cccc2C(c2ccccc2)C1 (stereo not given) [NOMIFENSINE] | 15 µM |  | 
COc1ccc2[nH]c([S+]([O-])Cc3ncc(C)c(OC)c3C)nc2c1 (stereo not given) [OMEPRAZOLE] |  | > 30 µM | 
CCCc1cc(=O)[nH]c(=S)[nH]1 [PROPYLTHIOURACIL] |  |  | AC50 (Melanocortin receptor 4): > 10 µM; AC50 (Cannabinoid receptor 1): > 10 µM
Cn1cc(C(=O)[C@@H]2CCc3nc[nH]c3C2)c2ccccc21 [RAMOSETRON] | > 30 µM |  | 
C[N+](C)(C)CCOC(=O)CCC(=O)OCC[N+](C)(C)C [SUXAMETHONIUM] |  | > 30 µM | 
Cc1ccsc1C(=CCCN1CCC[C@@H](C(=O)O)C1)c1sccc1C [TIAGABINE] |  | > 30 µM | 
Cc1ccc(C(=O)c2ccc(CC(=O)O)n2C)cc1 [TOLMETIN] |  | > 30 µM | 
Cc1ccccc1C(=O)Nc1ccc(C(=O)N2CCCC(O)c3cc(Cl)ccc32)c(C)c1 (stereo not given) [TOLVAPTAN] |  | > 30 µM | 
C[C@]12C=CC(=O)C=C1CC[C@H]1[C@@H]3C[C@@H](O)[C@](O)(C(=O)CO)[C@@]3(C)C[C@H](O)[C@@]12F [TRIAMCINOLONE] |  | > 30 µM | 
CCC1=C[C@@H]2CN(C1)Cc1c([nH]c3ccccc13)[C@@](C(=O)OC)(c1cc3c(cc1OC)N(C)[C@H]1[C@@](O)(C(=O)OC)[C@H](OC(C)=O)[C@]4(CC)C=CCN5CC[C@]31[C@@H]54)C2 [VINORELBINE] |  | > 30 µM | 
COc1cc(C(=O)NS(=O)(=O)c2ccccc2C)ccc1Cc1cn(C)c2ccc(NC(=O)OC3CCCC3)cc12 [ZAFIRLUKAST] |  |  | AC50 (Melanocortin receptor 4): > 10 µM; AC50 (Cannabinoid receptor 1): > 10 µM
